Measurements taken from publication PMC5131364, “Pharmacologic modulation of RORγt translates to efficacy in preclinical and translational models of psoriasis and inflammatory arthritis” (Scientific Reports, 2016).
Read-outs that look alike come from different tables or passages of the source.

Key:
mouse splenocytes = test: IL-23 induced IL-17A and IL-22 production in mouse splenocytes; type: cell-based; settings: Splenocyte, 96 h, IL-23 and IL-2, 4 days
Method: Mouse CD4+ T cell in vitro Th1 differentiation
Total CD4+ T cells were isolated from splenocytes of C57/BL6 mice (Chareles River Labrotory) using a CD4+ T cell isolation kit (Miltenyl Biotec, Auburn, CA), following the manufacturer’s instructions. Cells were resuspended in culture medium (described in Method section of Th17 differentiation) and were added to 96‐well plates at 2x10^5 per well. Titrated JNJ‐54271074 was added to each well at final DMSO concentration of 0.2%. Cells were incubated for 1 hour, after which Th1 cell differentiation medium was added with final concentrations of 1 µg/ml anti‐CD3, 5 µg/mL anti‐CD28 (BD Pharmingen, San Diego, CA), 10 µg/ml anti‐IL4, 10 ng/mL IL‐12, (R&D Systems, Minneapolis, MN). Cells were cultured at 37 °C and 5% CO2 for 3 days. Supernatants were collected and the accumulated cytokines in culture were measured by ELISA kits (R&D Systems, Minneapolis, MN) following manufacturers' instructions.
IL‐23 induced IL‐17A and IL‐22 production in mouse splenocytes splenocytes were isolated from C57/BL6 mice and resuspended in medium and cultured in 96‐well plates at […] per 100 µL per well. […] Supernatants were collected and the accumulated cytokines in culture were measured by ELISA according to the manufacturer’s instructions (IL‐17A kit from R&D systems, and IL‐22 from Biolegend San Diego). […]

RORα = biological target: T1, RORα (Homo sapiens, UniProt P35398); test: 1-hybrid reporter assay in HEK293T cells (GAL4-RORα); type: cell-based; settings: HEK-293T
T1 construct: NP_599022, aa 305–556; expressed in transfected cells; host or cells: HEK293T
T1 sequence (P35398 272-523): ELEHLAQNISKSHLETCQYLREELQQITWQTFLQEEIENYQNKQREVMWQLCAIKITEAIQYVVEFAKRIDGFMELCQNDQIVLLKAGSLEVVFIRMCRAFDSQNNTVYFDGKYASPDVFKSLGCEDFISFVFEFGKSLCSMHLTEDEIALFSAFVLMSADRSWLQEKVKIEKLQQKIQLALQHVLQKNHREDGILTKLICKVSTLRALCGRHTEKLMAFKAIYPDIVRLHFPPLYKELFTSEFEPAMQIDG
Method: The reporter assay was performed by transient co-transfection of HEK293T cells with pCMV-BD (Stratagene #211342) containing the GAL4 DNA-binding domain fused with full-length human RORγt (Genbank accession no. NP_001001523, aa 1–497), pFR-Luc reporter and pRL-CMV reporter (Promega #E2261) plus Carrier DNA (Clontech # 630440) using PEI solution (Sigma Aldrich cat# 40872-7) in a 96-well plate. […] Medium was removed and cells were lysed with Passive Lysis Buffer (Promega). Firefly luciferase buffer was then added and firefly luciferase luminescence was read on BMG LUMIstar OPTIMA luminescence plate reader. One second later, renilla luciferase buffer was then added and renilla luciferase luminescence was read to measure cell viability. For RORα and RORβ activity, similar assays were performed except cells were transfected with pCMV-BD-RORα (Genbank accession no. NP_599022, aa 305–556) or pCMV-BD-RORβ (Genbank accession no. NP_008845, aa 201–459).

IC50 (mouse splenocytes; no anti-CD3/anti-CD28, read-out: IC50, IL-23-stimulated IL-17A production): 19 nM
IC50 (mouse splenocytes; no anti-CD3/anti-CD28, read-out: IC50, IL-23-stimulated IL-22 production): 37 nM
IC50 (RORα): 4000 nM
SMILES: COc1nc2ccc([C@@](O)(c3ccc(C)nc3C)c3cnnn3C)cc2c(Cl)c1Cc1ccc(C(F)(F)F)cc1 [JNJ-54271074]
